Measurements reported in PubChem BioAssay AID2060889 (Molecular Pharmacology Branch, DTP, NCI, 2025).
Each block holds one compound with its values, some of them ahead of it.

System: LG0567-F671-PDC complex spheroids viability
Assay: Anticancer human tumor LG0567-F671-PDC patient-derived lung adenocarcinoma cell line growth inhibition [RAS]
Conditions: for IC50: curve of first compound; for viability, T/C: stronger effect = lower value
Procedure, shortened: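 Multi-cell-type spheroids: tumor cells plus HUVEC endothelial cells and mesenchymal stem cells. RAS-pathway inhibitors were combined with targeted agents, each dosed in half-log steps down from clinical Cmax, or from 10 microM when Cmax was unknown.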

[1] = second compound 0.000949 µM, first compound 0.0316 µM
[2] = second compound 0.000949 µM, first compound 0.1 µM
[3] = second compound 0.000949 µM, first compound 0.316 µM
[4] = second compound 0.000949 µM, first compound 1 µM
[5] = second compound 0.000949 µM, first compound 3.16 µM
[6] = second compound 0.000949 µM, first compound 10 µM
[7] = second compound 0.003 µM, first compound 0.0316 µM
[8] = second compound 0.003 µM, first compound 0.1 µM
[9] = second compound 0.003 µM, first compound 0.316 µM
[10] = second compound 0.003 µM, first compound 1 µM
[11] = second compound 0.003 µM, first compound 3.16 µM
[12] = second compound 0.003 µM, first compound 10 µM
[13] = second compound 0.00949 µM, first compound 0.0316 µM
[14] = second compound 0.00949 µM, first compound 0.1 µM
[15] = second compound 0.00949 µM, first compound 0.316 µM
[16] = second compound 0.00949 µM, first compound 1 µM
[17] = second compound 0.00949 µM, first compound 3.16 µM
[18] = second compound 0.00949 µM, first compound 10 µM
[19] = second compound 0.03 µM, first compound 0.0316 µM
[20] = second compound 0.03 µM, first compound 0.1 µM
[21] = second compound 0.03 µM, first compound 0.316 µM
[22] = second compound 0.03 µM, first compound 1 µM
[23] = second compound 0.03 µM, first compound 3.16 µM
[24] = second compound 0.03 µM, first compound 10 µM
[25] = second compound 0.0949 µM, first compound 0.0316 µM
[26] = second compound 0.0949 µM, first compound 0.1 µM
[27] = second compound 0.0949 µM, first compound 0.316 µM
[28] = second compound 0.0949 µM, first compound 1 µM
[29] = second compound 0.0949 µM, first compound 3.16 µM
[30] = second compound 0.0949 µM, first compound 10 µM
[31] = second compound 0.3 µM, first compound 0.0316 µM
[32] = second compound 0.3 µM, first compound 0.1 µM
[33] = second compound 0.3 µM, first compound 0.316 µM
[34] = second compound 0.3 µM, first compound 1 µM
[35] = second compound 0.3 µM, first compound 3.16 µM
[36] = second compound 0.3 µM, first compound 10 µM
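Further: spheroids exposed to compound for seven days before readout.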
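Wherever IC50 is given: luminescence signal used as a proxy for viable cells.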

IC50 (second compound 0.000949 µM): < 31.6 nM
IC50 (second compound 0.003 µM): < 31.6 nM
IC50 (second compound 0.00949 µM): < 31.6 nM
IC50 (second compound 0.03 µM): < 31.6 nM
IC50 (second compound 0.0949 µM): < 31.6 nM
IC50 (second compound 0.3 µM): < 31.6 nM
SMILES: CC(C)NCC(C(=O)N1CCN(c2ncnc3c2C(C)CC3O)CC1)c1ccc(Cl)cc1 (stereo unspecified) + CCn1c(-c2cc(N3CCN(C)CC3)cnc2C(C)OC)c2c3cc(ccc31)-c1csc(n1)CC(NC(=O)C1CC1C)C(=O)N1CCCC(N1)C(=O)OCC(C)(C)C2
viability, T/C [1]: 25.2%
viability, T/C [2]: 23.8%
viability, T/C [3]: 19.2%
viability, T/C [4]: 14.8%
viability, T/C [5]: 12.1%
viability, T/C [6]: 15.1%
viability, T/C [7]: 12.2%
viability, T/C [8]: 10.1%
viability, T/C [9]: 9.03%
viability, T/C [10]: 7.01%
viability, T/C [11]: 6.61%
viability, T/C [12]: 6.58%
viability, T/C [13]: 6.47%
viability, T/C [14]: 6.39%
viability, T/C [15]: 5.04%
viability, T/C [16]: 4.97%
viability, T/C [17]: 3.86%
viability, T/C [18]: 3.52%
viability, T/C [19]: 4.03%
viability, T/C [20]: 3.99%
viability, T/C [21]: 3.4%
viability, T/C [22]: 2.83%
viability, T/C [23]: 2.4%
viability, T/C [24]: 2.51%
viability, T/C [25]: 3.05%
viability, T/C [26]: 2.86%
viability, T/C [27]: 2.34%
viability, T/C [28]: 1.84%
viability, T/C [29]: 1.68%
viability, T/C [30]: 1.73%
viability, T/C [31]: 2.97%
viability, T/C [32]: 2.51%
viability, T/C [33]: 2.28%
viability, T/C [34]: 1.91%
viability, T/C [35]: 1.51%
viability, T/C [36]: 1.41%

IC50 (second compound 0.000949 µM): < 3.16 nM
IC50 (second compound 0.003 µM): < 3.16 nM
IC50 (second compound 0.00949 µM): < 3.16 nM
IC50 (second compound 0.03 µM): < 3.16 nM
IC50 (second compound 0.0949 µM): < 3.16 nM
IC50 (second compound 0.3 µM): < 3.16 nM
SMILES: C=CC(=O)N1CCN(c2nc(OCC3CCCN3C)nc3c(F)c(-c4nc(N)cc(C)c4C(F)(F)F)c(Cl)cc23)C(C)C1 (stereo unspecified) + CCn1c(-c2cc(N3CCN(C)CC3)cnc2C(C)OC)c2c3cc(ccc31)-c1csc(n1)CC(NC(=O)C1CC1C)C(=O)N1CCCC(N1)C(=O)OCC(C)(C)C2
viability, T/C (second compound 0.000949 µM, first compound 0.00316 µM): 9.35%
viability, T/C (second compound 0.000949 µM, first compound 0.01 µM): 9.1%
viability, T/C [1]: 8%
viability, T/C [2]: 8.66%
viability, T/C [3]: 7.95%
viability, T/C [4]: 7.17%
viability, T/C (second compound 0.003 µM, first compound 0.00316 µM): 5.52%
viability, T/C (second compound 0.003 µM, first compound 0.01 µM): 6.02%
viability, T/C [7]: 5.86%
viability, T/C [8]: 7.54%
viability, T/C [9]: 7.84%
viability, T/C [10]: 6.72%
viability, T/C (second compound 0.00949 µM, first compound 0.00316 µM): 5.09%
viability, T/C (second compound 0.00949 µM, first compound 0.01 µM): 4.57%
viability, T/C [13]: 5.64%
viability, T/C [14]: 4.78%
viability, T/C [15]: 5.6%
viability, T/C [16]: 4.86%
viability, T/C (second compound 0.03 µM, first compound 0.00316 µM): 3.64%
viability, T/C (second compound 0.03 µM, first compound 0.01 µM): 3.58%
viability, T/C [19]: 3.59%
viability, T/C [20]: 3.48%
viability, T/C [21]: 4.15%
viability, T/C [22]: 3.55%
viability, T/C (second compound 0.0949 µM, first compound 0.00316 µM): 3.37%
viability, T/C (second compound 0.0949 µM, first compound 0.01 µM): 3.02%
viability, T/C [25]: 2.73%
viability, T/C [26]: 2.71%
viability, T/C [27]: 2.59%
viability, T/C [28]: 3.04%
viability, T/C (second compound 0.3 µM, first compound 0.00316 µM): 2.73%
viability, T/C (second compound 0.3 µM, first compound 0.01 µM): 2.79%
viability, T/C [31]: 2.44%
viability, T/C [32]: 2.81%
viability, T/C [33]: 2.66%
viability, T/C [34]: 2.96%

Continued, compound first:

SMILES: CCC(CC)c1cc(NC2CCC(N)C2)n2nccc2n1 (stereo unspecified) + CCn1c(-c2cc(N3CCN(C)CC3)cnc2C(C)OC)c2c3cc(ccc31)-c1csc(n1)CC(NC(=O)C1CC1C)C(=O)N1CCCC(N1)C(=O)OCC(C)(C)C2
IC50 (second compound 0.000949 µM): < 31.6 nM
IC50 (second compound 0.003 µM): < 31.6 nM
IC50 (second compound 0.00949 µM): < 31.6 nM
IC50 (second compound 0.03 µM): < 31.6 nM
IC50 (second compound 0.0949 µM): < 31.6 nM
IC50 (second compound 0.3 µM): < 31.6 nM
viability, T/C [1]: 23.1%
viability, T/C [2]: 23.2%
viability, T/C [3]: 25.9%
viability, T/C [4]: 22.7%
viability, T/C [5]: 0.34%
viability, T/C [6]: 0.1%
viability, T/C [7]: 10.8%
viability, T/C [8]: 9.27%
viability, T/C [9]: 10.1%
viability, T/C [10]: 9.94%
viability, T/C [11]: 0.21%
viability, T/C [12]: 0.08%
viability, T/C [13]: 6.93%
viability, T/C [14]: 7.19%
viability, T/C [15]: 6.29%
viability, T/C [16]: 4.74%
viability, T/C [17]: 0.26%
viability, T/C [18]: 0.09%
viability, T/C [19]: 4.43%
viability, T/C [20]: 3.65%
viability, T/C [21]: 3.4%
viability, T/C [22]: 2.31%
viability, T/C [23]: 0.18%
viability, T/C [24]: 0.09%
viability, T/C [25]: 2.75%
viability, T/C [26]: 2.83%
viability, T/C [27]: 2.71%
viability, T/C [28]: 1.9%
viability, T/C [29]: 0.21%
viability, T/C [30]: 0.11%
viability, T/C [31]: 2.39%
viability, T/C [32]: 2.56%
viability, T/C [33]: 2.39%
viability, T/C [34]: 1.46%
viability, T/C [35]: 0.22%
viability, T/C [36]: 0.15%

SMILES: CC(C)n1nc(-c2ccc3oc(N)nc3c2)c2c(N)ncnc21
viability, T/C (compound 0.000316 µM): 90.9% [middle of 4 runs]
viability, T/C (compound 0.001 µM): 88.4% [middle of 4 runs]
viability, T/C (compound 0.00316 µM): 86.1% [middle of 4 runs]
viability, T/C (compound 0.01 µM): 75.3% [middle of 4 runs]
viability, T/C (compound 0.0316 µM): 56.1% [middle of 4 runs]

SMILES: CC1(C)CCC(Nc2ncc(C(F)(F)F)c(-c3c[nH]c4c(P(C)(C)=O)c(C#N)ccc34)n2)CN1 (stereo unspecified)
viability, T/C (compound 0.003 µM): 61.7% [middle of 4 runs]
viability, T/C (compound 0.00949 µM): 58.9% [middle of 4 runs]
viability, T/C (compound 0.03 µM): 58.4% [middle of 4 runs]
viability, T/C (compound 0.0949 µM): 60.6% [middle of 4 runs]
viability, T/C (compound 0.3 µM): 58% [middle of 4 runs]
